For test [1], the target named is FGF-1 (flg) receptor tyrosine kinase. In words: FGF receptor tyrosine kinase assay. The class given is biochemical, human.
The target in test [2] is PDGF-β receptor tyrosine kinase. In words: PDGF receptor tyrosine kinase assay. The class given is biochemical, mouse.

As to `CCNc1nc(Nc2ccccc2)ncc1C=CC(=O)OCC` [Example 17, Ethyl 3-(4-Ethylamino-2-phenylamino-pyrimidin-5-yl)acrylate], the concentration for half-maximal inhibition (IC50) in test [1] was determined as 4.5 µM; in test [2], 3.7 µM.

Source of the values: patent EP0964864B1, “PYRIDO 2,3-D PYRIMIDINES AND 4-AMINOPYRIMIDINES AS INHIBITORS OF CELLULAR PROLIFERATION” (priority 1997, dated 1998).
